Source: article PMC8842630, “Imidazoline- and Benzamidine-Based Trypanosome Alternative Oxidase Inhibitors: Synthesis and Structure–Activity Relationship Studies” (ACS Medicinal Chemistry Letters, 2022)
Values joined by “and” are separate entries in the source; they are usually repeats but may differ in a detail not shown here. Equal values may be shown once.

Tests used:
in vitro = conditions: human
[1] = test system: T. b. brucei strain resistant to pentamidine (B48); assay: microbe, parasite or virus in culture; type: cell-based; conditions: for EC50: Trypanosoma brucei, read-out: T. b. brucei EC50 B48
[2] = test system: Bloodstream form trypomastigotes of T. b. brucei strain 427 (WT); assay: Resazurin-based susceptibility assay, wild-type T. b. brucei; type: cell-based; conditions: for EC50: BSF trypomastigotes strain 427, n = 3; for trypanocidal activity against T. brucei (in words): compounds with short linkers (C-3)
Procedure: . […] This finding was in agreement with previous reports on TAO inhibitors showing that a decrease in efficacy against T. b. brucei growth inhibition was observed as chain length decreased.[8],[9],[23]
(§1) BSF trypanosomes of monomorphic strains Lister 427 (WT), multi-drug-resistant clone B48, and the AQP1-3 KO, which lacks all aquaglyceroporins,[26] were grown in complete HMI-9 with 10% fetal bovine serum, exactly as described, and tested using a standard resazurin-based assay with 23 doubling dilutions for each compound starting at 100 μM.[27] Human embryonic kidney (HEK) cells were cultured and assayed with a resazurin-based assay exactly as described previously.[9] EC50 values were calculated by nonlinear regression with an equation for a sigmoid curve with variable slope (Prism 8.0, GraphPad).

[3] = test system: T. brucei cell line from which all aquaporins were knocked out (AQP1-3 KO); assay: microbe, parasite or virus in culture; type: cell-based, T. b. brucei; conditions: for EC50: Trypanosoma brucei, read-out: T. b. brucei EC50 AQP1-3 KO; for RF (resistance factor relative to WT), AQP1-3 KO: EC50 AQP1-3 KO / EC50 WT
Procedure: as §1

[4] = test system: human embryonic kidney (HEK) cells; conditions: HEK CC50 / T. b. brucei WT EC50
[5] = biological target: Purified recombinant trypanosome alternative oxidase (ΔMTS-TAO) (Trypanosoma brucei brucei, UniProt Q26710); assay: Inhibition of ubiquinol oxidase activity of purified ΔMTS-TAO; conditions: for IC50: rTAO IC50, purified ΔMTS-TAO, n = 3; for inhibition at 40 µM: read-out: rTAO % inhibition at 40 μM; for inhibition at 10 µM: read-out: rTAO % inhibition (compound tested at 10 μM)
Purified recombinant trypanosome alternative oxidase (ΔMTS-TAO), sequence (Q26710 26-329, stated change not applied): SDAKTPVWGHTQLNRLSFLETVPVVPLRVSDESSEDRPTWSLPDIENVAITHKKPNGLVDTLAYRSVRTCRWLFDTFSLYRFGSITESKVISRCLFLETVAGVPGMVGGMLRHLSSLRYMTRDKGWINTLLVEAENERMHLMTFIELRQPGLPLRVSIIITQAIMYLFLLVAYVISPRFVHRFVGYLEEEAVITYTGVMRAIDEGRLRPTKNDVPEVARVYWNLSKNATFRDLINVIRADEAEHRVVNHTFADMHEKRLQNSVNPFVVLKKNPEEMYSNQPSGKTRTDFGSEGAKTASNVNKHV

SMILES | CC50 (in vitro) [µM] | EC50 [1] [µM] | EC50 ([2]; Trypanosoma brucei) [µM] | trypanocidal activity against T. brucei (in words) [2] | EC50 [3] [µM] | SI (selectivity index) = CC50/EC50 (WT) [4] | IC50 [5] | inhibition at 40 µM [5] [%] | EC50 [2] [µM] | inhibition at 10 µM [5] [%] | melting point [°C] | RF (resistance factor relative to WT), AQP1-3 KO [3] | TAO inhibition (in words) [5] | fold lower EC50 versus 7d ([2]; T. brucei WT EC50 of 20 versus 7d) [fold] | RF (resistance factor relative to WT), B48 ([1]; EC50 B48 / EC50 WT)
CC(=O)O.Cc1cc(O)cc(O)c1C(=O)NCCCOc1ccc(C(=N)N)cc1 [1a] | > 200 | > 100 | > 100 | inactive | – | – | – | – | – | – | – | – | – | – | –
CC(=O)O.Cc1cc(O)cc(O)c1C(=O)NCCCCCCOc1ccc(C(=N)N)cc1 [1b] | > 200 | 28 ± 0.5 | 15.5 ± 0.6 | – | 17.4 ± 0.9 | >12.9 | > 40 µM | 12.5 | – | – | – | – | – | – | –
CC(=O)O.Cc1cc(O)cc(O)c1C(=O)NCCCCCCCCCCCCOc1ccc(C(=N)N)cc1 [1c] | 43.5 ± 5.4 | 3.6 ± 0.1 | < 4 | – | – | 13.2 | > 40 µM | 39.3 | 3.3 ± 0.2 | – | – | – | – | – | –
Cc1cc(O)cc(O)c1C(=O)NCCCCCCCCCCCCCCOc1ccc(C(=N)N)cc1 [1d] | > 200 | 28.9 ± 5.2 | 18.6 ± 1.1 | – | – | – | > 40 µM | 31.4 | – | – | – | – | – | – | –
CC(=O)O.Cc1cc(O)cc(O)c1C(=O)NCCCCCCCCCCCCOc1ccc(C2=NCCN2)cc1 [2c] | 67.2 ± 0.8 | – | – | – | 2.9 ± 0.4 | 39.1 | > 10 µM | – | – | 10 | – | – | – | – | –
CC(=O)O.Cc1cc(O)cc(O)c1C(=O)NCCCCCCCCCCCCOc1ccc(N=C2NCCN2)cc1 [3c] | > 100 | – | < 4 | – | 3.92 ± 0.03 | >36.5 | 22.5 ± 0.3 µM | – | 2.7 ± 0.4 | 46.3 | 44.5 to 51.1 | – | – | – | –
Cc1cc(O)cc(O)c1C(=O)NCCCOc1ccc(C#N)cc1 [7a] | > 200 | 50.8 ± 2.7 | 37.2 ± 3.4 | poorly active | – | >5.3 | > 40 µM | 28.8 | – | – | – | – | – | – | –
Cc1cc(O)cc(O)c1C(=O)NCCCCCCOc1ccc(C#N)cc1 [7b] | > 200 | 27.7 ± 2 | 30.4 ± 0.4 | – | 30.5 ± 0.7 | – | 1.52 µM and 1.5 µM | 96.2 | – | – | – | – | – | – | –
Cc1cc(O)cc(O)c1C(=O)NCCCCCCCCCCCCOc1ccc(C#N)cc1 [7c] | 57.1 ± 0.1 | 15.9 ± 0.7 | 15.6 ± 0.7 | – | – | 3.7 | > 40 µM | 27.4 | – | – | 81.9 | – | – | – | –
Cc1cc(O)cc(O)c1C(=O)NCCCCCCCCCCCCCCOc1ccc(C#N)cc1 [7d] | 56.8 ± 0.2 | 15.7 ± 0.5 | 14.8 ± 0.5 | – | – | 3.8 | 16.4 ± 0.7 µM | 89.7 | – | – | – | – | – | – | –
Cc1cc(O)cc(O)c1C(=O)NCCCOc1ccc(C(=N)NO)cc1 [8a] | > 200 | > 100 | > 100 | inactive | – | – | > 40 µM | 14.1 | – | – | – | – | – | – | –
Cc1cc(O)cc(O)c1C(=O)NCCCCCCOc1ccc(C(=N)NO)cc1 [8b] | 76.8 ± 7.2 | 36 ± 1.8 | 19.5 ± 1 | – | 21 ± 1 | 3.9 | > 40 µM | -14.9 | – | – | – | – | – | – | –
Cc1cc(O)cc(O)c1C(=O)NCCCCCCCCCCCCOc1ccc(C(=N)NO)cc1 [8c] | 109 ± 1.6 | 9.1 ± 0.5 | 8.4 ± 1.1 | – | – | 13 | > 40 µM | 44.8 | – | – | – | – | – | – | –
Cc1cc(O)cc(O)c1C(=O)NCCCCCCCCCCCCCCOc1ccc(C(=N)NO)cc1 [8d] | > 200 | 27.1 ± 2.4 | 29 ± 2.2 | – | – | – | > 40 µM | -3.4 | – | – | – | – | – | – | –
Cc1cc(O)cc(O)c1C(=O)NCCCCCCCCCCCCOc1ccc([N+](=O)[O-])cc1 [11c] | > 100 | – | 9.5 ± 0.5 | – | 10.2 ± 0.7 | >10.5 | 30 ± 1.5 µM | – | – | 53.8 | 102.3 to 106.3 | – | – | – | –
Cc1cc(O)cc(O)c1C(=O)NCCCCCCCCCCCCOc1ccc(N)cc1 [12c] | > 100 | – | 20.3 ± 1.3 | – | 29.6 ± 2.2 | >4.9 | – | – | – | – | – | 1.5 | – | – | –
Cc1cc(O)cc(O)c1C(=O)NCCCCCCCCCCCCOc1ccc(N=C2N(C(=O)OC(C)(C)C)CCN2C(=O)OC(C)(C)C)cc1 [14c] | > 100 | – | 10.4 ± 0.7 | – | 15.7 ± 0.3 | >9.6 | – | – | – | – | – | 1.5 | – | – | –
C/C(=C\Cc1c(O)c(Cl)c(C)c(C=O)c1O)CC/C=C(\C)[C@@H]1CC(=O)C(C)(C)O1 [ascofuranone, reference compound] | – | – | – | – | – | – | – | 100 | – | – | – | – | – | – | –
Cc1cc(O)c(C(=O)CCCCCCCCCCCCCCCOc2ccc(C#N)cc2)c(O)c1 [compound 20] | > 100 | – | 5.8 ± 0.7 | – | 8.2 ± 0.9 | >17.1 | > 10 µM | – | – | 13.4 | – | – | lack of TAO inhibition | 2.5 | –
Cc1cc(O)cc(OC(=O)CCCCCCCCCCCCCCCOc2ccc(C#N)cc2)c1 [compound 21] | > 100 | – | > 100 | – | > 100 | – | > 10 µM | – | – | 30 | – | – | – | – | –
N=C(N)c1ccc(/N=N/Nc2ccc(C(=N)N)cc2)cc1 [diminazene, reference compound] | – | 0.107 ± 0.019 | 0.095 ± 0.011 | – | – | – | – | – | – | – | – | – | – | – | 1.1
N=C(N)c1ccc(OCCCCCOc2ccc(C(=N)N)cc2)cc1 [pentamidine, reference compound] | – | 0.208 ± 0.021 | 0.004 ± 0.001 | – | 0.046 ± 0.003 | – | – | – | – | – | – | – | – | – | –
